# In patent US6489320B1, “5, 5-disubstituted-1, 5-dihydro-4, 1-benzoxazepin-2 (3H)-ones useful as HIV reverse transcriptase inhibitors” (Bristol-Myers Squibb Pharma Company, priority 1997, dated 2002):
# “And” between values parts separate entries of the source, which are not always exact repeats. Equal values may be shown once. Where a name gives a salt, the structure may show the parent alone.
row,melting point,Compound
1,190 to 191 °C,"O=C1COC(C#Cc2ccccc2)(C(F)(F)F)c2cc(Cl)ccc2N1 (centres unmarked) (as salt: sodium) [Example 16, 7-Chloro-5-phenylethynyl-1,5-dihydro-5-(trifluoromethyl)-4,1-benzoxazepin-2(3H)-one]"
2,169 to 170 °C,"CC[C@@H]1O[C@](C#Cc2ccoc2)(C(F)(F)F)c2cc(Cl)ccc2NC1=O (relative stereo) (as salt: sodium) [Example 32, rel-(3S,5S)-7-Chloro-5-(3-furanylethynyl)-1,5-dihydro-3-ethyl-5-(trifluoromethyl)-4,1-benzoxazepin-2(3H)-one]"
3,171 to 172 °C,"C[C@@H]1O[C@](/C=C/C2CC2)(C(F)(F)F)c2cc(Cl)ccc2NC1=O (relative stereo) [Example 6, rel-(3S,5S)-trans-7-Chloro-5-(2-cyclopropylethenyl)-1,5-dihydro-3-methyl-5-(trifluoromethyl)-4,1-benzoxazepin-2(3H)-one]"
4,205 to 206.5 °C,"C[C@@H]1O[C@](/C=C/c2ccco2)(C(F)(F)F)c2cc(Cl)ccc2NC1=O (relative stereo) [Example 9, rel-(3S,5S)-trans-7-Chloro-1,5-dihydro-5-(2-furan-2-ylethenyl)-3-methyl-5-(trifluoromethyl)-4,1-benzoxazepin-2(3H)-one]"
5,191 to 192 °C,"CCC[C@@H]1O[C@](C#CC2CC2)(C(F)(F)F)c2cc(Cl)ccc2NC1=O (relative stereo) [Example 14a, rel-(3S,5S)-7-Chloro-5-cyclopropylethynyl-1,5-dihydro-3-propyl-5-(trifluoromethyl)-4,1-benzoxazepin-2(3H)-one]"
6,141 °C,"CCC[C@H]1O[C@](C#CC2CC2)(C(F)(F)F)c2cc(Cl)ccc2NC1=O (relative stereo) [Example 14b, rel-(3R,5S)-7-Chloro-5-cyclopropylethynyl-1,5-dihydro-3-propyl-5-(trifluoromethyl)-4,1-benzoxazepin-2(3H)-one]"
7,167 °C,"CC(C)[C@@H]1O[C@](C#CC2CC2)(C(F)(F)F)c2cc(Cl)ccc2NC1=O (relative stereo) [Example 15, rel-(3S,5S)-7-Chloro-5-cyclopropylethynyl-1,5-dihydro-3-isopropyl-5-(trifluoromethyl)-4,1-benzoxazepin-2(3H)-one]"
8,180 to 181 °C,"CC[C@@H]1O[C@](C#CC2CC2)(C(F)(F)F)c2cc(Cl)ccc2NC1=O (relative stereo) [Example 22, rel-(3S,5S)-7-Chloro-5-cyclopropylethynyl-1,5-dihydro-3-ethyl-5-(trifluoromethyl)-4,1-benzoxazepin-2(3H)-one]"
9,129 to 130 °C,"CC[C@H]1O[C@](C#CC2CC2)(C(F)(F)F)c2cc(Cl)ccc2NC1=O (relative stereo) [Example 23, rel-(3R,5S)-7-Chloro-5-cyclopropylethynyl-1,5-dihydro-3-ethyl-5-(trifluoromethyl)-4,1-benzoxazepin-2(3H)-one]"
10,165 to 167 °C and 167 °C,"CCC[C@@H]1O[C@](/C=C/C2CC2)(C(F)(F)F)c2cc(Cl)ccc2NC1=O (relative stereo) [Example 30, rel-(3S,5S)-trans-7-Chloro-5-(2-cyclopropylethenyl)-1,5-dihydro-3-propyl-5-(trifluoromethyl)-4,1-benzoxazepin-2(3H)-one]"
11,147 to 147.5 °C,"CC[C@@H]1O[C@](/C=C/C2CC2)(C(F)(F)F)c2cc(Cl)ccc2NC1=O (relative stereo) [Example 38, rel-(3S,5S)-trans-7-Chloro-5-(2-cyclopropylethenyl)-1,5-dihydro-3-ethyl-5-(trifluoromethyl)-4,1-benzoxazepin-2(3H)-one]"
12,165.5 to 166.5 °C,"C=C[C@@H]1O[C@](/C=C/C2CC2)(C(F)(F)F)c2cc(Cl)ccc2NC1=O (relative stereo) [Example 42, rel-(3S,5S)-trans-7-Chloro-5-(2-cyclopropylethenyl)-1,5-dihydro-3-ethenyl-5-(trifluoromethyl)-4,1-benzoxazepin-2(3H)-one]"
13,143 to 144 °C,"O=C1Nc2ccc(Cl)cc2[C@@](/C=C/C2CC2)(C(F)(F)F)O[C@H]1C1CC1 (relative stereo) [Example 44, rel-(3S,5S)-trans-7-Chloro-5-(2-cyclopropylethenyl)-1,5-dihydro-3-cyclopropyl-5-(trifluoromethyl)-4,1-benzoxazepin-2(3H)-one]"
14,171 to 172 °C,"C=C[C@@H]1O[C@](C#CC2CC2)(C(F)(F)F)c2c(ccc(F)c2F)NC1=O (relative stereo) [Example 45, rel-(3S,5S)-6,7-Difluoro-5-(2-cyclopropylethynyl)-1,5-dihydro-3-ethenyl-5-(trifluoromethyl)-4,1-benzoxazepin-2(3H)-one]"
15,222 to 222.5 °C,"O=C1Nc2ccc(F)c(F)c2[C@@](C#CC2CC2)(C(F)(F)F)O[C@H]1C1CC1 (relative stereo) [Example 46, rel-(3S,5S)-6,7-Difluoro-5-(2-cyclopropylethynyl)-1,5-dihydro-3-cyclopropyl-5-(trifluoromethyl)-4,1-benzoxazepin-2(3H)-one]"
16,184 to 185 °C,"C[C@@H]1O[C@](C#CC2CC2)(C(F)(F)F)c2cc(F)ccc2NC1=O (relative stereo) [Example 48, rel-(3S,5S)-7-Fluoro-5-(2-cyclopropylethynyl)-1,5-dihydro-3-methyl-5-(trifluoromethyl)-4,1-benzoxazepin-2(3H)-one]"

row,melting point,Compound
1,186 °C,"CC[C@@H]1O[C@](C#CC2CC2)(C(F)(F)F)c2cc(F)ccc2NC1=O (relative stereo) [Example 49, rel-(3S,5S)-7-Fluoro-5-(2-cyclopropylethynyl)-1,5-dihydro-3-ethyl-5-(trifluoromethyl)-4,1-benzoxazepin-2(3H)-one]"
2,180 to 182 °C,"C[C@@H]1O[C@](/C=C/C2CC2)(C(F)(F)F)c2cc(F)ccc2NC1=O (relative stereo) [Example 50, rel-(3S,5S)-trans-7-Fluoro-5-(2-cyclopropylethenyl)-1,5-dihydro-3-methyl-5-(trifluoromethyl)-4,1-benzoxazepin-2(3H)-one]"
3,148 to 149 °C,"CC[C@@H]1O[C@](/C=C/C2CC2)(C(F)(F)F)c2cc(F)ccc2NC1=O (relative stereo) [Example 51, rel-(3S,5S)-trans-7-Fluoro-5-(2-cyclopropylethenyl)-1,5-dihydro-3-ethyl-5-(trifluoromethyl)-4,1-benzoxazepin-2(3H)-one]"
4,252 °C,"C[C@@H]1O[C@](C#CC2CC2)(C(F)(F)F)c2c(ccc3c2OCO3)NC1=O (relative stereo) [Example 52, rel-(3S,5S)-6,7-Methylenedioxy-5-(2-cyclopropylethynyl)-1,5-dihydro-3-methyl-5-(trifluoromethyl)-4,1-benzoxazepin-2(3H)-one]"
5,201 to 202 °C,"CC[C@@H]1O[C@](C#CC2CC2)(C(F)(F)F)c2c(ccc3c2OCO3)NC1=O (relative stereo) [Example 53, rel-(3S,5S)-6,7-Methylenedioxy-5-(2-cyclopropylethynyl)-1,5-dihydro-3-ethyl-5-(trifluoromethyl)-4,1-benzoxazepin-2(3H)-one]"
6,236 to 237 °C,"C[C@@H]1O[C@](/C=C/C2CC2)(C(F)(F)F)c2c(ccc3c2OCO3)NC1=O (relative stereo) [Example 54, rel-(3S,5S)-trans-6,7-Methylenedioxy-5-(2-cyclopropylethenyl)-1,5-dihydro-3-methyl-5-(trifluoromethyl)-4,1-benzoxazepin-2(3H)-one]"
7,188 to 190 °C,"CC[C@@H]1O[C@](/C=C/C2CC2)(C(F)(F)F)c2c(ccc3c2OCO3)NC1=O (relative stereo) [Example 55, rel-(3S,5S)-trans-6,7-Methylenedioxy-5-(2-cyclopropylethenyl)-1,5-dihydro-3-ethyl-5-(trifluoromethyl)-4,1-benzoxazepin-2(3H)-one]"
8,135 to 136 °C,"CC(C)C#C[C@]1(C(F)(F)F)OCC(=O)Nc2ccc(Cl)cc21 (single isomer, unassigned) [Example 4]"
9,167 to 168 °C,"CCC#CC1(C(F)(F)F)OCC(=O)Nc2ccc(Cl)cc21 (centres unmarked) [Example 1, 5-(1-Butynyl)-7-chloro-1,5-dihydro-5-(trifluoromethyl)-4,1-benzoxazepin-2(3H)-one]"
10,198 to 199 °C,"CCC#CC1(C(F)(F)F)OC(c2ccccc2)C(=O)Nc2ccc(Cl)cc21 [Example 2, rel-(3S,5S)-5-(1-Butynyl)-7-chloro-1,5-dihydro-3-phenyl-5-(trifluormethyl)-4,1-benzoxazepin-2(3H)-one]"
11,183 to 183.5 °C,"CC(C)C#CC1(C(F)(F)F)OCC(=O)Nc2ccc(Cl)cc21 (centres unmarked) [Example 3, 7-Chloro-1,5-dihydro-5-(isopropylethynyl)-5-(trifluoromethyl)-4,1-benzoxazepin-2(3H)-one]"
12,157 to 158 °C,"O=C1COC(/C=C/C2CC2)(C(F)(F)F)c2cc(Cl)ccc2N1 (stereo not drawn) [Example 5, trans-7-Chloro-5-(2-cyclopropylethenyl)-1,5-dihydro-5-(trifluoromethyl)-4,1-benzoxazepin-2(3H)-one]"
13,172 to 173 °C,"CC(C)C#CC1(C(F)(F)F)OCC(=O)Nc2ccc(F)cc21 (centres unmarked) [Example 7, 1,5-Dihydro-7-fluoro-5-isopropylethynyl-5-(trifluoromethyl)-4,1-benzoxazepin-2(3H)-one]"
14,199 to 200 °C,"O=C1COC(/C=C/c2ccco2)(C(F)(F)F)c2cc(Cl)ccc2N1 (stereo not drawn) [Example 10, trans-7-Chloro-1,5-dihydro-5-(2-furan-2-yl)ethenyl-5-(trifluoromethyl)-4,1-benzoxazepin-2(3H)-one]"
15,192.5 to 193.5 °C,"CC(C)C#CC1(C(F)(F)F)OCC(=O)Nc2ccc(F)c(F)c21 (centres unmarked) [Example 13, 6,7-Difluoro-1,5-dihydro-5-(isopropylethynyl)-5-(trifluoromethyl)-4,1-benzoxazepin-2(3H)-one]"
16,199.5 to 200.5 °C,"O=C1COC(C#CC2CC2)(C(F)(F)F)c2cc(Cl)ccc2N1 (centres unmarked) [Example 18, 7-Chloro-5-cyclopropylethynyl-1,5-dihydro-5-(trifluoromethyl)-4,1-benzoxazepin-2(3H)-one]"
